Among the data in patent US20240124427A1, “HYDROXYHETEROCYCLOALKANE-CARBAMOYL DERIVATIVES” (Idorsia Pharmaceuticals Ltd, priority 2021, published 2024) are IC50 values, retold here.

In one assay the target is human Gal-1 (hGal-1) (Homo sapiens, UniProt P09382). The format is binding.
A further assay has as its target human Gal-3 (hGal-3) (Homo sapiens (Human), UniProt P17931). Briefly: Competitive binding assay: biotinylated hGal-3 binding to microplate-adsorbed asialofetuin (ASF). The method in brief:
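Spectrophotometric read-out using streptavidin-peroxidase and ABTS quantifies how much biotin-hGal-3 remains bound to microplate asialofetuin after 3 h at 4 °C with compound present. Values are means of repeated IC50 determinations.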

pIC50: −log10 of the molar value.

Sequence of human Gal-3 (hGal-3) (P17931 whole entry): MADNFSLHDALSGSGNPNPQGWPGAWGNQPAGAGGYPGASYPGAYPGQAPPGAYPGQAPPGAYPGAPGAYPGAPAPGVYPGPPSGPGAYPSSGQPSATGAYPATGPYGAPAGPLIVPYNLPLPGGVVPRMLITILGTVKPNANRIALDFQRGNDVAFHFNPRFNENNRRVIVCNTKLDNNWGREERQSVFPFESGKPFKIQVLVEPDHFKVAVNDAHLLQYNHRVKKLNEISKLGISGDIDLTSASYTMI
Sequence of human Gal-1 (hGal-1) (P09382 2-135 limits assumed): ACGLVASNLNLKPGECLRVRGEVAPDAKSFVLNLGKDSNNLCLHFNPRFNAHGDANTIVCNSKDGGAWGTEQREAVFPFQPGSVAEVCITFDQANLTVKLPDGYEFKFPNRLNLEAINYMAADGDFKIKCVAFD

On to `CO[C@@H]1[C@@H](n2cc(-c3cc(F)c(Cl)c(F)c3)nn2)[C@@H](O)[C@@H](CO)O[C@H]1C(=O)N(c1cc(Br)cc(Br)c1)[C@@H]1CN(C(C)=O)C[C@H]1O` [Example 87], for which the pIC50 (as a rule, the IC50 on a negative log10 scale, so that one unit is a factor of ten) was 5.73 at human Gal-1 (hGal-1) and 7.44 at human Gal-3 (hGal-3).

`CO[C@@H]1[C@@H](n2cc(-c3ccc(Cl)c(Cl)c3)nn2)[C@@H](O)[C@@H](CO)O[C@H]1C(=O)N(c1cc(Cl)cc(Cl)c1)[C@@H]1CN(C(C)=O)C[C@H]1O` [Example 88]: the pIC50 against human Gal-1 (hGal-1) was 6.18; at human Gal-3 (hGal-3), 7.15.
